According to US20030170194A1, “Pharmaceutical and/or cosmetic composition containing an organosiloxane and a phospholipid” (priority 2000, published 2003):

Type: physicochemical
Conditions: composition of 10% by weight phospholipid and 90% by weight hexamethyldisiloxane

dissolves in higher concentration than in hexamethyldisiloxane alone: 10 fold
Compound: Clc1ccccc1C(c1ccccc1)(c1ccccc1)n1ccnc1 [clotrimazole]
